Data: patent US20070037783A1, “Migrastatin analogs and uses thereof” (priority 2003, published 2007)

Tests used:
[1] = test system: HUVEC; experiment: Tube formation assay (preliminary, Table 1); format: cell-based, human; settings: minimal concentration causing definite disturbance of tube network, 16-18 h, tested 200, 100, 50, 25, 10 μM
Procedure: 1. Tube Formation Assay (Table 1):
A protocol was designed based on the instructions from the provider (BD Bioscience, San Jose, Calif.). Briefly, wells of a 48 well culture dish were covert with 150 μL matrigel and the matrigel was gelatinized for 30 min at 37° C. A 80-90% confluent HUVEC (BD Bioscience, San Jose, Calif.) culture was trypsin treated, the detached cells were collected by centrifugation and resuspended in EGM-2 media (BD Bioscience, San Jose, Calif.). Cell concentration was adjusted to 100.000 cells/mL. 400 μL of the cell suspension were filled in the matrigel coated wells, and a solution of the inhibitor was added to the intended final concentration. The plates were incubated at 37° C. with 5% CO2 for 16-18 h. Media was removed, and the matrigel surface was washed twice with 500 μL PBS before cells were labeled with 250 μL 8 μM Calcein AM (Pierce, Rockford, Ill.) in PBS for 30 min at 37° C. After two additional washing steps (500 μL PBS) cells were visualized under an inverted microscope. Fluorescence was excited at 488 nm and recorded at 538 nm. The minimum effect concentration was defined as the minimal inhibitor concentration that caused a definite disturbance of the complexity of the formed tube network.

[2] = test system: adherent cells (e.g. KYSE-520 cells); experiment: Wound healing (scratch) assay (preliminary, Table 2); format: cell-based; settings: 28 to 30 h, compared to 100 μM Migrastatin, tested 200, 100, 50, 25, 10 μM
Procedure: 2. Wound Healing Assay (Table 2)
The wound healing assay was performed based on the method described by Nakae et al. (Nakae et al., J. Antibiotics (2000), 53, 1130-1136). Briefly, adherent cells were grown in a suitable media to confluence (e.g. KYSE-520 cells in RPMI-1640 with 10% FBS). Cells were starved for 24 h in serum free media. A scratch (ca. 0.5 mm) was applied and the cell layer was washed twice with PBS after removal of the media. Fresh, serum free media with the test compound at the desired concentration was added and the cells were incubated for 28 to 30 h at 37° C., 5% CO2. The scratch size was compared to that observed for cells exposed to 100 μM Migrastatin. Test compounds associated with a scratch size equal to or larger than that observed for cells exposed to 100 μM Migrastatin were deemed to have cell migration inhibitory activity at least equal to Migrastatin.

[3] = test system: cells; experiment: Chamber cell migration assay, CyQuant readout (preliminary, Table 3); format: cell-based; settings: 36 h, tested 200, 100, 50, 25, 10 μM
Procedure: 3. Chamber Cell Migration Assay (Table 3)
Cells were grown in an appropriate media to 70 to 80% confluence and incubated in serum and growth factor free media for 24 h. Cells were detached by typsin treatment, collected by centrifugation and resuspended in serum free media to a final concentration of 150,000 cells/mL. 400 μL of the cell suspension were loaded into a fibronectin coated insert for 24 well multidishes. 750 μL fully supplemented media were applied to the compartment under the insert. To both chambers the inhibitor was added at the intended concentration and the plates were incubated for 36 h at 37° C., 5% CO2. […] The resulting CyQuant assay solution was transferred to the cavities of a 96 well microtiter plate and the fluorescence signal was recorded in an appropriate reader. The CyQuant dye forms a highly fluorescent complex with DNA, thus the fluorescence signal is proportional to the number of cells that migrated throught he membrane in the presence of the test compound (N^inh). […] The positive control fluorescent reading correlates with the number of cells that migrate through the membrane in the absence of inhibitor (N^+). […] The negative control fluorescent reading correlates with the number of cells that migrate through the membrane through non-directed processes (N^−). The anti-migratory effect of a test compound is determined by the ratio (N^inh−N^−)/(N^+−N^−).

[4] = test system: 4T1 mouse breast tumor cells; experiment: Boyden chamber cell migration assay with 4T1 tumor cells; format: cell-based; settings: Mus musculus, read-out: IC50 (4T1 tumor cells)
Procedure: The biological evaluation of the compounds (in terms of their ability to inhibit cell migration) was accomplished in a Boyden chamber cell migration assay. In this assay, mouse breast tumor cells (4T1 cells) or endothelial cells (HUVECs) are seeded on the upper chamber of a transwell insert. Growth factor-containing serum is added to the lower chamber.
Chamber Cell Migration Assay (Tables 4 and 6): Cell migrations were assayed with Boyden chambers [8.0 μm pore size, polyethylene terephthalate membrane, FALCON cell culture insert (Becton-Dickinson)]. 4T1 mouse breast tumor cells or HUVECs were trypsinized and counted. 300 μl of 5-10×10^4 cells in serum-free medium was added to the upper chamber and 500 μl of medium with 10% fetal bovine serum (FBS) was added to the lower chamber. […] Cells on the inside of the transwell inserts were removed with a cotton swab, and cells on the underside of the insert were fixed and stained. Photographs of three random regions were taken and the number of cells was counted to calculate the average number of cells that have transmigrated.

[5] = test system: HUVECs (human umbilical vein endothelial cells); experiment: Boyden chamber cell migration assay with HUVECs; format: cell-based; settings: Homo sapiens, HUVEC, read-out: IC50 (HUVEC)
Procedure: Chamber Cell Migration Assay (Tables 4 and 6): Cell migrations were assayed with Boyden chambers [8.0 μm pore size, polyethylene terephthalate membrane, FALCON cell culture insert (Becton-Dickinson)]. 4T1 mouse breast tumor cells or HUVECs were trypsinized and counted. 300 μl of 5-10×10^4 cells in serum-free medium was added to the upper chamber and 500 μl of medium with 10% fetal bovine serum (FBS) was added to the lower chamber. The transwells were incubated for 6-8 h at 37° C. with different concentrations of chemical compound in both upper and lower chamber. Cells on the inside of the transwell inserts were removed with a cotton swab, and cells on the underside of the insert were fixed and stained. Photographs of three random regions were taken and the number of cells was counted to calculate the average number of cells that have transmigrated.

[6] = Mouse plasma stability study (HPLC); format: in vitro ADME; settings: stable = intensity of HPLC signal unchanged over 60 min of incubation
Procedure: Mouse Plasma Stability Studies (Table 5): HPLC conditions: The sample is injected and separated using an Inertsil ODS3 6u 3×150 mm column with a mobile phase of MeCN and water (50% for migrastatin) at a flow of 0.4 mL/min, monitored at 220 nm at 0.02 AUFS (the retention time for migrastatin is ca. 4 min, the identity of this peak was confirmed by mass spectral analysis). Incubation and sample preparation conditions: A solution (ca. 30 mM) of chemical compound (Table 5) in DMSO is prepared. 2 μL of the solution is added to a mixture containing 200 μL of mouse plasma and 800 μL of PBS. The resulting solution is put into a water bath at 37° C., and 100 μL of sample is withdrawn at 10, 20, 30, 45, and 60 min. The precipitate is removed by centrifugation and 20 μL of the supernatant is injected onto the HPLC.

[7] = test system: 4T1 mouse breast tumor cells; experiment: Wound-healing assay with 4T1 cells (FIG. 6); format: cell-based; settings: with serum; 200 μM; overnight
From the text: In the wound healing assay, standard scratches (i.e., wounds) were made through a confluent 4T1 cell layer. In the absence of serum, cells would not migrate across the empty space created by application of the scratch. Upon addition of serum containing migration-enabling factors, migration of 4T1 cells across the scratch was induced. Exposure to these cells to inventive compounds allowed the evaluation of the cell migration inhibitory activity of these compounds.
Wound-Healing Assay (See FIG. 6). 4T1 mouse breast tumor cells in RPMI-1640 medium containing 10% fetal bovine serum (FBS) were seeded into wells of 24-multiwell plates (Becton-Dickinson). After cells grew to confluence, wounds were made with sterile pipette tips. Cells were washed with Phosphate Buffered Saline (PBS) and refreshed with growth medium containing different concentrations of chemical compounds. After overnight incubation at 37° C., cells were fixed and photographed.

[8] = test system: tumor cell migration; settings: literature value for natural migrastatin; read-out: IC50, wound healing assay (reported activity); cited from earlier work
[9] = test system: 4T1 tumor cells; experiment: Cell proliferation assay (MTT); settings: Mus musculus, 4T1, 48 h, read-out: IC50, 4T1 cell proliferation
Procedure: Cell Proliferation Assay: 4×10^4 of 4T1 tumor cells in RPMI-1640 medium containing 10% FBS were seeded into wells of 96-multiwell plates (Becton-Dickinson) in the presence or absence of chemical compounds and then incubated at 37° C. for 48 h. An MTT kit (Cell Proliferation Kit I, Roche) (a colorimetric assay) was used to quantify cell proliferation and viability. The number of living cells, thus the total metabolic activity, directly correlates to the amount of purple formazan crystals formed (monitored by the absorbance).

In the case of CO[C@H]1/C=C/CC/C=C/C(=O)O[C@H]([C@H](C)C(=O)CCCC2CC(=O)NC(=O)C2)/C(C)=C\[C@@H](C)[C@@H]1O [migrastatin (1), Migrastatin], the Minimum effect concentration [1] is reported as 100 µM, the Minimum effect concentration [2] is reported as 100 µM and the IC50 [3] is reported as 200 µM. For the same compound, the IC50 [4] was 29 µM, the IC50 [5] was 65 µM and the “stability (mouse plasma), in words” value [6] was “stable^1”. The “stability (mouse plasma), in words” value ([6]; listed as migrastatin) was “completely inert toward lactone opening”, the “inhibition of 4T1 cell migration across the scratch, in words” value [7] was “not as great” and the IC50 [8] was 29 µM. It also gave an IC50 [9] of 42 µM.
